Key:
[1] = target: T1, Protein arginine N-methyltransferase 9 (Homo sapiens) (UniProt Q6P2P2); test: Selectivity interaction (Methyltransferase screen (radiometric assays, panel of 8 PRMTs, 21 protein lysine methyltransferases, 3 DNA methyltransferases, and one RNA methyltransferase)) EUB0000271b PRMT9
T1 sequence (whole entry): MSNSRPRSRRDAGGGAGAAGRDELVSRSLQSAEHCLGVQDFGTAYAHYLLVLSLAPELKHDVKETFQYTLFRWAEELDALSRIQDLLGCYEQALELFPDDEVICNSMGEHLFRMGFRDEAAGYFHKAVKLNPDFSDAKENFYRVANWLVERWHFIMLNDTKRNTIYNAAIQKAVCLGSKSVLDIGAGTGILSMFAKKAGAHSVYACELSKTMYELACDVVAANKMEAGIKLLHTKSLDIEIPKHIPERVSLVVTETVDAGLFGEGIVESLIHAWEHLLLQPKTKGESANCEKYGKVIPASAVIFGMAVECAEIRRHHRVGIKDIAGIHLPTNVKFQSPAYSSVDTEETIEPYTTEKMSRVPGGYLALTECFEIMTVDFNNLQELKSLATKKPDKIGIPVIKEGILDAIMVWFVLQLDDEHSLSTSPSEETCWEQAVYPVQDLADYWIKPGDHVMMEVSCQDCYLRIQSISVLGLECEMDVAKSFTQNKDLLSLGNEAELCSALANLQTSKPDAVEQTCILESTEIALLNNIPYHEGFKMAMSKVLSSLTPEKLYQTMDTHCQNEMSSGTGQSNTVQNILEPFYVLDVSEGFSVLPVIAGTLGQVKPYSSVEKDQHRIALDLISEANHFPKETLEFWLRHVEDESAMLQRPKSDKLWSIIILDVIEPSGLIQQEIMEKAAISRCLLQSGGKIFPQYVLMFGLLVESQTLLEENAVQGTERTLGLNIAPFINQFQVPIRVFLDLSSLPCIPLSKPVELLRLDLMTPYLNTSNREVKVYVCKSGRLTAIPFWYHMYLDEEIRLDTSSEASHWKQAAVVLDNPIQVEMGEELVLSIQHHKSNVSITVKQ

[2] = target: Ribosomal protein S6 kinase alpha-5 (Homo sapiens) (UniProt O75582); conditions: at 10 µM
[3] = target: Vascular endothelial growth factor receptor 2 (Homo sapiens, UniProt P35968); test: Selectivity interaction (KinomeScan (DiscoverX)) EUB0000699a KDR; conditions: at 10 µM
[4] = target: Mitogen-activated protein kinase 1 (Homo sapiens, UniProt P28482); test: Selectivity interaction (Ambit KINOMEscan and KiNATiv profiling in Jurkat cells) EUB0000090b MAPK1; format: cell-based; conditions: at 1 µM
Chain of Mitogen-activated protein kinase 1 (P28482 whole entry): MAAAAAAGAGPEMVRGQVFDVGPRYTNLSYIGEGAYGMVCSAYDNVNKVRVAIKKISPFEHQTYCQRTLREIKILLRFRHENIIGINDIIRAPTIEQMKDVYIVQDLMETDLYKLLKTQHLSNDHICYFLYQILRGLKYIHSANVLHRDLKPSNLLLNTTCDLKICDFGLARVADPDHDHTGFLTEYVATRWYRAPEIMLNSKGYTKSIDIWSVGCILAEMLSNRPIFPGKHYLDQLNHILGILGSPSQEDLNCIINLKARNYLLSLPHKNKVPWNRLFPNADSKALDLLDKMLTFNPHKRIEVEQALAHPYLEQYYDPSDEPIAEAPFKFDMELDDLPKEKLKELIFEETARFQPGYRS

[5] = target: Transient receptor potential cation channel subfamily M member 6 (Homo sapiens) (UniProt Q9BX84); test: Selectivity interaction (KinomeScan (DiscoverX)) EUB0000618a TRPM6; conditions: at 10 µM
[6] = target: LIM domain kinase 1 (Homo sapiens) (UniProt P53667); test: Selectivity interaction (KinomeScan (DiscoverX)) EUB0000607a LIMK1; conditions: at 10 µM
[7] = target: Non-receptor tyrosine-protein kinase TYK2 (Homo sapiens, UniProt P29597); test: Selectivity interaction (KinomeScan (DiscoverX)) EUB0001619a TYK2; conditions: at 1 µM
[8] = target: Vascular endothelial growth factor receptor 1 (Homo sapiens) (UniProt P17948); test: Selectivity interaction (KinomeScan (DiscoverX)) EUB0001619a FLT1; conditions: at 1 µM
Chain of Vascular endothelial growth factor receptor 1 (Homo sapiens) (P17948 whole entry): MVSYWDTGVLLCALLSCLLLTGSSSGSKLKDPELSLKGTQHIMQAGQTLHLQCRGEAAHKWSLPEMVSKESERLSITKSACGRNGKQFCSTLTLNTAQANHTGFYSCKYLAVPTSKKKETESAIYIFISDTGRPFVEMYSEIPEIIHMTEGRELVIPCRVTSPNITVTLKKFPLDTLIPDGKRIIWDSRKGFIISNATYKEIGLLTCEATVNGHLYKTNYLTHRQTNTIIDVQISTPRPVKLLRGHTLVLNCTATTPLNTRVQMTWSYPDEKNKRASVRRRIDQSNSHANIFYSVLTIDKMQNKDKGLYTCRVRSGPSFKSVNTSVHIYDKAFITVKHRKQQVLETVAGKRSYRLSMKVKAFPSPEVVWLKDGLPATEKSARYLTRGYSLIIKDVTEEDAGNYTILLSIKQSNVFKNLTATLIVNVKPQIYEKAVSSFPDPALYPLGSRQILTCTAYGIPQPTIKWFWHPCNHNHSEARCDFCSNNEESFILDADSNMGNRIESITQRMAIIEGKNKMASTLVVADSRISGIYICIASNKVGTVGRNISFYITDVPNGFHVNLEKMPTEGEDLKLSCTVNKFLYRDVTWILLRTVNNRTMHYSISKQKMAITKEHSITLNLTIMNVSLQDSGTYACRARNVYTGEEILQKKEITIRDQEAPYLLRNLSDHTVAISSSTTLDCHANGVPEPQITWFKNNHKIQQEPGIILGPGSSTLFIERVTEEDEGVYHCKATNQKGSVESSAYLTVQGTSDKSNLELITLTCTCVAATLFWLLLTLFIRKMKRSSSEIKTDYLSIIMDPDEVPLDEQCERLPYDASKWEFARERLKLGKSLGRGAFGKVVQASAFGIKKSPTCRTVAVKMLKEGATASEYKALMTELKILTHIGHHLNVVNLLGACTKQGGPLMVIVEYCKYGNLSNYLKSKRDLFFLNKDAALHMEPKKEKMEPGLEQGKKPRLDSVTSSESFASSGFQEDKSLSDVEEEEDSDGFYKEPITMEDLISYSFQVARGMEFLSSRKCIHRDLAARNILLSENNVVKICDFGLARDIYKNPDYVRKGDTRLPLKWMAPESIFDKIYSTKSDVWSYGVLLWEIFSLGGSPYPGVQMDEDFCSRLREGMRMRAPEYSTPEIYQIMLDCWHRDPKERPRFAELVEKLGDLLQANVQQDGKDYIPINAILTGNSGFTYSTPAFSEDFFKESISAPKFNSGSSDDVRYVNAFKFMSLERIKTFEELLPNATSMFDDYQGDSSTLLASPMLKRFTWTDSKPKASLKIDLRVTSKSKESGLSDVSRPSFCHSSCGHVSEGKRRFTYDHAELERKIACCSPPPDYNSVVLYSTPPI

[9] = target: T2, Tyrosine-protein kinase receptor TYRO3 (Homo sapiens) (UniProt Q06418); test: Selectivity interaction (KinomeScan (DiscoverX)) EUB0000045b TYRO3
T2 sequence (whole entry): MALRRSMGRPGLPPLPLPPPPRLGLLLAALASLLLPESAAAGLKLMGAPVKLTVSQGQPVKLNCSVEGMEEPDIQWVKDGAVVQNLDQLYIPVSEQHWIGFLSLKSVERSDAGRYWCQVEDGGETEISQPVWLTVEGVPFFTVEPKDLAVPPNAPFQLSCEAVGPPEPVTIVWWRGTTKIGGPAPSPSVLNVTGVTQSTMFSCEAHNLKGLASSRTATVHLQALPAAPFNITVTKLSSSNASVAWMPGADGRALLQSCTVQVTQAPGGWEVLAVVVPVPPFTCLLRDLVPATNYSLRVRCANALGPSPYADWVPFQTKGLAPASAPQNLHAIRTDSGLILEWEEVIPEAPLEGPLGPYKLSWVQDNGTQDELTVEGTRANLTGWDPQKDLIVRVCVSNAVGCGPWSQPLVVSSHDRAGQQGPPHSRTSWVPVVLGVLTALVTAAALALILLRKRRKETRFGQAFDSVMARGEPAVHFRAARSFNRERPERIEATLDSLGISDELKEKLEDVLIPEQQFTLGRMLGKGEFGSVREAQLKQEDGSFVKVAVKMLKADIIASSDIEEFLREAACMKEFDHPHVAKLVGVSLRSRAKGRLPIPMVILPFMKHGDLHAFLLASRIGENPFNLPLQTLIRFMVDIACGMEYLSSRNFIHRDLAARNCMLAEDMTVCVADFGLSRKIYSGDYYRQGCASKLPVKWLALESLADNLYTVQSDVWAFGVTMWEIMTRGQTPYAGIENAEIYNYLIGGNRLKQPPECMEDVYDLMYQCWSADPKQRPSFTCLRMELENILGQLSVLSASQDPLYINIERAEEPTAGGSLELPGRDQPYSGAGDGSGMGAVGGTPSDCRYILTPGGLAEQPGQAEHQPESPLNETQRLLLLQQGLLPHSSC

[10] = target: Ribosomal protein S6 kinase alpha-2 (Homo sapiens) (UniProt Q15349); test: Selectivity interaction (KinomeScan (DiscoverX)) EUB0000045b RPS6KA2; conditions: at 1 µM
Chain of Ribosomal protein S6 kinase alpha-2 (Homo sapiens) (Q15349 whole entry): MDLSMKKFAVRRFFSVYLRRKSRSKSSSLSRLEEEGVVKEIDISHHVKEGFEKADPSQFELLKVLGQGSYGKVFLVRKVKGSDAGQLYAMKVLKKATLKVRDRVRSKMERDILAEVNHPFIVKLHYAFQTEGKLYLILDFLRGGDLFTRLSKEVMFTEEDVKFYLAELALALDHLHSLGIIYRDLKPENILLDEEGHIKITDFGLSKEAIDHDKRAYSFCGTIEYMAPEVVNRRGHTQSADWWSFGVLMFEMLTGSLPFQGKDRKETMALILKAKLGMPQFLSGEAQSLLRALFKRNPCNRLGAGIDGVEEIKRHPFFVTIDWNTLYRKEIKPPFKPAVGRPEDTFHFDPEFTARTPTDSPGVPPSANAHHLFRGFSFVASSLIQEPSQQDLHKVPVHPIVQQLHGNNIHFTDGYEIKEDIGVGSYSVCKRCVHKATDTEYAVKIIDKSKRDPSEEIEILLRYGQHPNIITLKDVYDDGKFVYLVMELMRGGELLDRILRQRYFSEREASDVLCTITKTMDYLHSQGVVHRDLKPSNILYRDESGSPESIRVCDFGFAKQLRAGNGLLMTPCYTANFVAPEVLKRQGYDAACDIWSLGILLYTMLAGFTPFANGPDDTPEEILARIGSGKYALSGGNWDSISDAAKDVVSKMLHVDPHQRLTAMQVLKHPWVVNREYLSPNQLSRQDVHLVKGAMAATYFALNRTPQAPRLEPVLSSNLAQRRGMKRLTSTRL

[11] = target: Serine/threonine-protein kinase MRCK gamma (Homo sapiens) (UniProt Q6DT37); test: Selectivity interaction (KinomeScan (DiscoverX)) EUB0000045b CDC42BPG
Chain of Serine/threonine-protein kinase MRCK gamma (Homo sapiens) (Q6DT37 whole entry): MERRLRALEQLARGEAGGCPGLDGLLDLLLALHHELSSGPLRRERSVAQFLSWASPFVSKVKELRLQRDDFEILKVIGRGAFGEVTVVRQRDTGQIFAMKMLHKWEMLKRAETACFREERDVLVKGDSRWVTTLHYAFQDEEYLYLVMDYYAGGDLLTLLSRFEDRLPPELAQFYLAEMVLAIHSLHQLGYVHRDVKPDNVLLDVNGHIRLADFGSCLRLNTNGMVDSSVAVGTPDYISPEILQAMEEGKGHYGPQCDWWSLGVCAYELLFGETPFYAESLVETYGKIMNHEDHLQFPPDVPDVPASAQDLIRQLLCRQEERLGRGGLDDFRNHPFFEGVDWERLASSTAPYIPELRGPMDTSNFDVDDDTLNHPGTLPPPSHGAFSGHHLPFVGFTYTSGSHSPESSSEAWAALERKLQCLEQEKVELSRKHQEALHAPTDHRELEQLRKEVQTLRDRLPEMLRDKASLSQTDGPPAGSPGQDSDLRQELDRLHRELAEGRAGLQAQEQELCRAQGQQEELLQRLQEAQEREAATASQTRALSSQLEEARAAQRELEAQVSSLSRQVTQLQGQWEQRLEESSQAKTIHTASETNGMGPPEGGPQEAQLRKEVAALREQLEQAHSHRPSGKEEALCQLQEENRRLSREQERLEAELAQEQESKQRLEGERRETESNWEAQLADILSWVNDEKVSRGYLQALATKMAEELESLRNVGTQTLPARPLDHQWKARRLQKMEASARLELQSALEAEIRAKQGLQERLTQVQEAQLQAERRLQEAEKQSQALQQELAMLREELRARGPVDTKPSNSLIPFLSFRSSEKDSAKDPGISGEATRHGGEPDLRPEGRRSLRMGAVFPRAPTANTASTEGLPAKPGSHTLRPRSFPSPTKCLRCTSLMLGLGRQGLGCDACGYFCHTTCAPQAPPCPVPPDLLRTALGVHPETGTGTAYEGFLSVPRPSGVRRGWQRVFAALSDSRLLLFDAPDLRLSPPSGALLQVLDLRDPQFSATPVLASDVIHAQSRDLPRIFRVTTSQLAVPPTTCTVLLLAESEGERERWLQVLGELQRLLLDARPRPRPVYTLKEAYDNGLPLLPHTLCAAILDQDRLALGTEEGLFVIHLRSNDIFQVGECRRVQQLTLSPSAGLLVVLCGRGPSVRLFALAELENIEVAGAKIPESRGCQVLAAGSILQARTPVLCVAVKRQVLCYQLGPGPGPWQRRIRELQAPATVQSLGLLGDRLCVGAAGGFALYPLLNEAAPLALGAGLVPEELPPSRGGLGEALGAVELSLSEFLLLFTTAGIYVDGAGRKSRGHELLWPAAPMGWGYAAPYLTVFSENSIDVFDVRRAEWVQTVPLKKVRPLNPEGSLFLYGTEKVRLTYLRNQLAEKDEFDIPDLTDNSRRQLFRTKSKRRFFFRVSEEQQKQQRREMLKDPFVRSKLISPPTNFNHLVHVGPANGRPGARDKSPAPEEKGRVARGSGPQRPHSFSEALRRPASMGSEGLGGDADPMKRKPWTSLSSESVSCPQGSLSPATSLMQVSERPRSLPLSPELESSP

[12] = target: Ribosomal protein S6 kinase alpha-3 (Homo sapiens, UniProt P51812); test: Selectivity interaction (ActivX KiNativ screen (kinase selectivity in THP-1 cell lysates)) EUB0000639a RPS6KA3; format: subcellular; conditions: lysate, at 1 µM
[13] = target: Receptor tyrosine-protein kinase erbB-4 (Homo sapiens, UniProt Q15303); test: Selectivity interaction (Kinase panel (Invitrogen)) EUB0000639a ERBB4; conditions: at 200 nM
[14] = target: Serine/threonine-protein kinase VRK2 (Homo sapiens) (UniProt Q86Y07); test: Selectivity interaction (KinomeScan (DiscoverX)) EUB0000229b VRK2; conditions: at 10 µM
[15] = target: Wee1-like protein kinase (Homo sapiens) (UniProt P30291); test: Selectivity interaction (KinomeScan (DiscoverX)) EUB0000229b WEE1; conditions: at 10 µM
Chain of Wee1-like protein kinase (Homo sapiens) (P30291 whole entry, looked up, canonical isoform): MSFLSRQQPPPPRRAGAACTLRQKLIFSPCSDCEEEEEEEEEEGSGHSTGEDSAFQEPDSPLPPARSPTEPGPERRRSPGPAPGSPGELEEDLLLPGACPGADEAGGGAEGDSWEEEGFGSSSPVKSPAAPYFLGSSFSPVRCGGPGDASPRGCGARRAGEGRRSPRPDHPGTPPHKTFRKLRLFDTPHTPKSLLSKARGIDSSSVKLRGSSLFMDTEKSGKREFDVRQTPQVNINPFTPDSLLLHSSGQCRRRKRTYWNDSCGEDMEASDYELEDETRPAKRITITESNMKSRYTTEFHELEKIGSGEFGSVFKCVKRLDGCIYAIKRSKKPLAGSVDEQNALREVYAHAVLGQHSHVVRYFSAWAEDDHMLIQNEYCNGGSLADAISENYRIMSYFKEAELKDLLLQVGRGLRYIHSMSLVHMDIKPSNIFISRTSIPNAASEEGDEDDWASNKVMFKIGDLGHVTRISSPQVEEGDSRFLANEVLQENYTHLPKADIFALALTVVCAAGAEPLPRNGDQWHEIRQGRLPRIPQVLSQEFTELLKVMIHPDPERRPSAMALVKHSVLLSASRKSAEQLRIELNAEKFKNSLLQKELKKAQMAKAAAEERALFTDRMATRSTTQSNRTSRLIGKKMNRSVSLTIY

[16] = target: Casein kinase I isoform alpha (Homo sapiens, UniProt P48729); test: Selectivity interaction (ProQinase) EUB0000171b CSNK1A1
Chain of Casein kinase I isoform alpha (P48729 2-337 limits assumed): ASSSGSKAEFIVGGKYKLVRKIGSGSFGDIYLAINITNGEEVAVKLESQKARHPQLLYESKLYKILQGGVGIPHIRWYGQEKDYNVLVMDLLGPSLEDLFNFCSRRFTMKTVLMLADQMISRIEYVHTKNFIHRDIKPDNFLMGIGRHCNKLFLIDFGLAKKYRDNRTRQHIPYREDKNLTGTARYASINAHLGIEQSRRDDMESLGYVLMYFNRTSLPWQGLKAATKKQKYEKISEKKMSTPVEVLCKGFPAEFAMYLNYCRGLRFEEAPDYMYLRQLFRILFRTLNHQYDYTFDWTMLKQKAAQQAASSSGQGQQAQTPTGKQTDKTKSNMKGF

[17] = target: Tyrosine-protein kinase JAK1 (Homo sapiens, UniProt P23458); test: Selectivity interaction (KinomeScan (DiscoverX)) EUB0000666a JAK1; conditions: at 10 µM

Cc1cc(C)cc([C@@H]2c3cc(C)ccc3NC(=O)CN2C(=O)c2ccc(Br)s2)c1
% of activity ([1]; at 1 µM): 102%
% of activity ([1]; at 10 µM): 103%

CCN(CC)CCCCNc1ncc2cc(-c3cc(OC)cc(OC)c3)c(NC(=O)NC(C)(C)C)nc2n1
% of control [2]: 100%
% of control [3]: 21%

CN(C)C/C=C/C(=O)Nc1ccc(C(=O)N2CCCC(Nc3ncc(Cl)c(-c4c[nH]c5ccccc45)n3)C2)cc1 (stereo unspecified)
% of control [4]: 85%

O[C@H]1CC[C@H](Nc2ncc3nc(Nc4c(F)cc(F)cc4F)n([C@H]4CCOC4)c3n2)CC1
% of control [5]: 100%

CNC(=O)Nc1ccc(-c2nc(N3CC4CCC(C3)O4)c3cnn(C4CCC5(CC4)OCCO5)c3n2)cc1
% of control [6]: 95%

N#Cc1cccc(-c2c[nH]c3ncnc(N4CCOCC4)c23)c1
% of control [7]: 69%
% of control [8]: 73%

C=CC(=O)Nc1cc(-n2c(=O)ccc3cnc4ccc(-c5ccc(NS(C)(=O)=O)cc5)cc4c32)ccc1C
% of control ([9]; at 1 µM): 100%
% of control ([9]; at 10 µM): 100%
% of control [10]: 90%
% of control ([11]; at 1 µM): 100%
% of control ([11]; at 10 µM): 90%

CC[C@@H]1[C@H](F)C(=O)N[C@@H]1COc1nccc2cc(C(N)=O)c(OC)cc12 [ZIMLOVISERTIB]
% of inhibition [12]: 6.6%
% of inhibition [13]: 8.76%

COc1cc(N(C)c2ccnc3ccc(C(F)(F)F)cc23)cc(OC)c1OC
% binding [14]: 85%
% binding [15]: 91%

C=CC(=O)Nc1cccc(C(=O)Nc2ccc(Nc3cc(-c4[nH]c(SC)nc4C)ccn3)cc2)c1
% of control ([16]; at 1 µM): 70%
% of control ([16]; at 5 µM): 38%

O=C(NOC[C@H](O)CO)c1ccc(F)c(F)c1Nc1ccc(I)cc1F
% of control [17]: 78%
